Measured values reported in patent US9072741B2, “Methods of treating liver fibrosis and pre-cirrhosis with epidermal growth factor receptor inhibitors” (The General Hospital Corporation, priority 2009, dated 2015).
Values joined by “and” are separate entries in the source; they are usually repeats but may differ in a detail not shown here. Equal entries are not always repeated. Marks after values point to notes of the source that are not given here.

Experiments:
[1] = test system: DEN-induced fibrosis and cirrhosis; experiment: DEN-treated rats with liver biopsy before and after treatment (disease progression within the same animal); type: in vivo, male Wistar rats
Method: FIG. 3A is a scheme of the experiment. Male Wistar rats received weekly intraperitoneal injections of DEN (50 mg/kg) for 18 weeks. After 12 weeks, the rats underwent a survival hepatectomy and a liver biopsy was removed for histology. Rats then received vehicle or erlotinib (2 mg/kg) daily (5 days/week) during weeks 13-18. Rats were sacrificed at 19 weeks after a one-week washout of DEN. FIG. 3B is a bar graph showing Ishak scores from Masson's trichrome stains of liver sections from each animal. **p<0.01 compared to vehicle. FIG. 3C is a bar graph depicting the number of tumor nodules that were greater than 5 mm in diameter in rats that received vehicle or erlotinib. **p<0.01 compared to vehicle. FIG. 3D is a bar graph showing the weights of livers at the time of sacrifice expressed as percent body weight.
To further examine the ability of erlotinib to reverse fibrosis and cirrhosis, liver biopsies were performed on DEN-treated rats before and after they received erlotinib (FIG. 3A) to determine disease progression within the same animal.

[2] = test system: DEN-induced hepatotoxicity and liver failure; experiment: Liver function tests on serum (AST, TBIL, Glu) of DEN-treated rats; type: in vivo, male Wistar rats; conditions: n=4
Method: FIGS. 4A, 4B, and 4C are a series of three bar graphs showing the levels of (A) aspartate transaminase (AST), (B) total bilirubin (TBIL), and (C) total glucose (Glu) in serum from rats treated with PBS for 18 weeks or DEN (50 mg/kg) for 18 weeks plus either vehicle, 0.5 mg/kg erlotinib (Erl 0.5), or 2 mg/kg erlotinib (Erl 2) during weeks 12-18. *, significant.
FIGS. 7A, 7B, and 7C are a series of three bar graphs showing levels of (A) aspartate transaminase (AST), (B) total bilirubin (TBIL), and (C) total glucose (Glu) in serum from rats treated with DEN (50 mg/kg) for 18 weeks plus either vehicle or 18 mg/kg lapatinib during weeks 12-18. *, significant.
During fibrosis, hepatic stellate cells are activated and deposit fibrous collagen into the space of Disse, the area between the hepatocytes and the sinusoid containing blood plasma. The deposition of collagen inhibits the normal exchange of nutrients and wastes between the hepatocytes and plasma resulting in hepatotoxicity and liver failure. The degree of liver toxicity and failure can be assessed by measuring several proteins or a carbohydrate present in the serum. For example, aspartate aminotransferase (AST) is an enzyme present in hepatocytes that is released into the serum when hepatocytes die. Bilirubin (TBIL) is the breakdown product of heme and its levels become elevated in the serum if hepatocytes cannot properly metabolize it. Finally, liver failure will result in lower levels of glucose (Glu) production causing serum Glu levels to drop.
The levels of AST, TBIL, and Glu were assayed in serum from rats treated with erlotinib. Male Wistar rats (n=4) were treated with PBS for 18 weeks or a weekly intraperitoneal injection of 50 mg/kg DEN for 18 weeks plus either vehicle, 0.5 mg/kg erlotinib (Erl 0.5), or 2 mg/kg erlotinib (Erl 2) between weeks 12 and 18. Whole blood was isolated from the rats and allowed to clot for 2 hours at room temperature. The blood was then spun at 2,000 rpm for 10 minutes and serum (top layer) was isolated. Liver function tests were performed on serum from the rats. In the current model, intraperitoneal administration of DEN causes both hepatotoxicity and liver failure to increase over time as assessed by these three markers. However, compared to vehicle controls, erlotinib reduced the degree of hepatotoxicity and liver failure in a dose-dependent fashion. Specifically, erlotinib decreased serum levels of AST and TBIL and increased serum levels of Glu (FIGS. 4A-C).
Levels of AST, TBIL, and Glu were assayed in serum from rats treated with lapatinib. Male Wistar rats (n=4) were treated with PBS for 18 weeks or a weekly intraperitoneal injection of 50 mg/kg DEN for 18 weeks plus either vehicle or 18 mg/kg lapatinib between weeks 12 and 18. Whole blood was isolated from the rats and allowed to clot for 2 hours at room temperature. The blood was then spun at 2,000 rpm for 10 minutes and serum (top layer) was isolated. Liver function tests were performed on serum from the rats. In the current model, intraperitoneal administration of DEN causes both hepatotoxicity and liver failure to increase over time as assessed by these three markers. However, compared to vehicle controls, lapatinib reduced the degree of hepatotoxicity and liver failure. Specifically, lapatinib decreased serum levels of AST and TBIL and increased serum levels of Glu (FIGS. 7A-C).

[3] = test system: advanced HCC; conditions: recent clinical trials (Philip et al.; Thomas et al.); cited from earlier work
[4] = 0.5 and 2 mg/kg weeks 12-18 vs vehicle, dose-dependent
[5] = 18 mg/kg weeks 12-18 vs vehicle

| Structure (SMILES) | animals with reversed disease progression ([1]; 2 mg/kg weeks 13-18, eight animals) | fibrosis and cirrhosis (Ishak, FIG. 3B) ([1]; 2 mg/kg weeks 13-18 vs vehicle) | tumorigenesis (tumor nodules greater than 5 mm, FIG. 3C) ([1]; 2 mg/kg weeks 13-18 vs vehicle) | liver weight (percent body weight, FIG. 3D) ([1]; 2 mg/kg weeks 13-18 vs vehicle, at sacrifice) | Ishak 19 weeks, AVERAGE ([1]; average of 8 rats after 2 mg/kg weeks 13-18, vehicle 5.8) | Change of Ishak score, AVERAGE ([1]; average of 8 rats, 2 mg/kg weeks 13-18, vehicle +2.2) | Ishak 13 weeks, AVERAGE ([1]; average of 8 rats, biopsy before treatment, vehicle 3.6) | Change of Ishak score ([1]; individual rats, 19 weeks vs 13 weeks, 2 mg/kg weeks 13-18, 2 mg/kg) | Ishak 19 weeks ([1]; individual rats, after 2 mg/kg daily (5 days/week) weeks 13-18) | Ishak 13 weeks ([1]; individual rats, biopsy before treatment (baseline)) | serum level of AST [2, 4] | serum level of Glu [2, 4] | serum level of TBIL [2, 4] | disease control in advanced HCC patients [3] | serum level of AST [2, 5] | serum level of Glu [2, 5] | serum level of TBIL [2, 5] |
| --- | --- | --- | --- | --- | --- | --- | --- | --- | --- | --- | --- | --- | --- | --- | --- | --- | --- |
| C#Cc1cccc(Nc2ncnc3cc(OCCOC)c(OCCOC)cc23)c1 [erlotinib, 4-Quinazolinamine, N-(3-ethynylphenyl)-6,7-bis(2-methoxyethoxy)] | two out of eight | significantly less fibrosis and cirrhosis | significant decrease in tumorigenesis | decrease in liver weight | 4.3* | +1 | 3.3 | +3 and +2 (3×) and −2 and −1 and +1 (2×) | 6 and 5 (2×) and 4 (3×) and 3 (2×) | 3 (4×) and 2 (2×) and 5 (2×) | decreased | increased | decreased | improved disease control in only a minority | – | – | – |
| CS(=O)(=O)CCNCc1ccc(-c2ccc3ncnc(Nc4ccc(OCc5cccc(F)c5)c(Cl)c4)c3c2)o1 [lapatinib, 4-Quinazolinamine, N-(3-chloro-4-((3-fluorophenyl)methoxy)phenyl)-6-(5-(((2-(methylsulfonyl)ethyl)amino)methyl)-2-furanyl)] | – | – | – | – | – | – | – | – | – | – | – | – | – | – | decreased | increased | decreased |
